These molecules were tested against human calcitonin receptor (CTR) and RAMP3 (AMY3) in COS-7 cells (Homo sapiens, UniProt O60896+P30988) (assay: Amylin Receptor cAMP Assay I). Details: values marked *: Amylin Receptor cAMP Assay I; COS-7/AMY3 cells; read-out: Amylin Receptor cAMP Stimulation Activity: EC50.
Assay type: cell-based
Source text: Amylin Receptor cAMP Assay I
AMYRs are heterodimers of the class B calcitonin (CT) G-protein-coupled receptor (CTR) and receptor activity-modifying proteins (RAMPs). All three RAMPs can interact with the CTR and form AMY1, AMY2, AMY3 with RAMP1, RAMP2 and RAMP3, respectively. Like other class B1 GPCRs, the CT receptor family is canonically coupled to Gs-mediated cAMP production, and measurement of cAMP accumulation has been the primary assay used to determine peptide selectivity and potency.
To optimize functional activity directed toward Gas coupling, COS-7 cells were stably transfected with human calcitonin receptor (CTR) and RAMP3, simultaneously. 100× concentration of compound working solutions were prepared (Agilent Technologies Bravo) with 4-fold serial dilution in 384-well Echo LDV plate (Labcyte, Cat #LP-0200). 100 nL/well 100× concentration of compound working solutions were moved to 384-well white low volume plate (Greiner, Cat #784075) using Labcyte ECHO550. 1×10^5 cells/mL COS-7/CTR or COS-7/AMY3 (HD Biosciences) cell suspensions prepared with assay buffer [DPBS containing 0.5 mM IBMX (Sigma, Cat #15879) and 0.1% BSA (GENVIEW, Cat #FA016-100 g)], 10 μL cell suspensions were added to each well of previous generated assay plate which already contains 100 nL compound at 100× concentration using ThermoFisher Multidrop Combi (1000 cells/well). Seal the plate and incubate at 37° C. with 5% CO2 for 30 min.
After incubation, the cAMP assay signal was generated using cAMP Hi-range Kit (Cisbio). 5 μL cAMP-d2 working solution was added to each well, followed by 5 μL Anti-cAMP antibody-cryptate working solution which was added to each well using ThermoFisher Multidrop Combi. The samples were then incubated at room temperature for 1 hour protected from light. the fluorescence was read at 665 and 615 nm with Reader PerkinElmer EnVision.

Sequence of human calcitonin receptor (CTR) and RAMP3 (AMY3) in COS-7 cells (P30988 25-474): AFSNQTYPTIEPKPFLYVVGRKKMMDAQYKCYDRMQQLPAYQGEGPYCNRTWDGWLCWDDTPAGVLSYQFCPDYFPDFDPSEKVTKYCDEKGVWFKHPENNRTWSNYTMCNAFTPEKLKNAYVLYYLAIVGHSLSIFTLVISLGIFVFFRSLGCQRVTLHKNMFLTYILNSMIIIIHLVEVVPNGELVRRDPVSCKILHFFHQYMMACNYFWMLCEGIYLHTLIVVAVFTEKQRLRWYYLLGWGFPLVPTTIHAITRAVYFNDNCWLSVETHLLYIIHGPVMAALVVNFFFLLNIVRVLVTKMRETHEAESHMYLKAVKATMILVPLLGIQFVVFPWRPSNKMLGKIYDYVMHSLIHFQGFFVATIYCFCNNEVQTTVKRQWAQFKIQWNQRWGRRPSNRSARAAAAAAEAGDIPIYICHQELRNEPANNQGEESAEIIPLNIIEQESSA
Sequence of human calcitonin receptor (CTR) and RAMP3 (AMY3) in COS-7 cells (O60896 24-148): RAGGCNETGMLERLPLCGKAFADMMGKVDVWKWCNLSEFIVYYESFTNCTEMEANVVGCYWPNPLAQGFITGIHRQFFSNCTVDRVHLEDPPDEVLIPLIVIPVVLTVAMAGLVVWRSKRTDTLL

Row | SMILES | EC50
1 | Cc1nnc(-c2c(CCc3ccc(F)cc3)nc(CC(C)C)c(C(N)=O)c2-c2cc3ccccc3s2)o1 [Compound 127, 4-(1-benzothiophen-2-yl)-6-[2-(p-fluorophenyl)ethyl]-2-isobutyl-5-(5-methyl-1,3,4-oxadiazol-2-yl)nicotinamide] | 495 nM
2 | Cc1nnc(-c2c(CCc3ccc(F)cc3)nc(CC(C)C)c(C(N)=O)c2-c2ccc(C(=O)NCc3ccc(F)c(F)c3)o2)o1 [Compound 128, N-(3,4-difluorophenyl)methyl-5-{5-carbamoyl-2-[2-(p-fluorophenyl)ethyl]-6-isobutyl-3-(5-methyl-1,3,4-oxadiazol-2-yl)-4-pyridyl}-2-furamide] | 162 nM
3 | Cc1nnc(-c2c(CCc3ccc(F)cc3)nc(CC(C)C)c(C(N)=O)c2-c2cc3cccc(Br)c3s2)o1 [Compound 129, 4-(7-bromo-1-benzothiophen-2-yl)-6-[2-(p-fluorophenyl)ethyl]-2-isobutyl-5-(5-methyl-1,3,4-oxadiazol-2-yl)nicotinamide] | 940 nM
4 | Cc1nnc(-c2c(CCc3ccc(F)cc3)nc(CC(C)C)c(C(N)=O)c2-c2cc3ccnc(NCc4ccc(F)c(F)c4)c3o2)o1 [Compound 130, 4-(7-{[(3,4-difluorophenyl)methyl]amino}-1-oxa-6-aza-2-indenyl)-6-[2-(p-fluorophenyl)ethyl]-2-isobutyl-5-(5-methyl-1,3,4-oxadiazol-2-yl)nicotinamide] | 49 nM
5 | Cc1nnc(-c2c(CCc3ccc(F)cc3)nc(CC(C)C)c(C(N)=O)c2-c2cc3ncnc(NCc4ccc(F)c(F)c4)c3s2)o1 [Compound 132, 4-(4-((3,4-difluorobenzyl)amino)thieno[3,2-d]pyrimidin-6-yl)-6-(4-fluorophenethyl)-2-isobutyl-5-(5-methyl-1,3,4-oxadiazol-2-yl)nicotinamide] | 2.5 nM
6 | Cc1nnc(-c2c(CCc3ccc(F)cc3)nc(CC(C)C)c(C(N)=O)c2-c2cc3c(NCc4ccc(F)c(F)c4)nccc3s2)o1 [Compound 133, 4-(4-((3,4-difluorobenzyl)amino)thieno[3,2-c]pyridin-2-yl)-6-(4-fluorophenethyl)-2-isobutyl-5-(5-methyl-1,3,4-oxadiazol-2-yl)nicotinamide] | 6.9 nM
7 | COCC1CN(c2nccc3cc(-c4c(C(N)=O)c(CC(C)C)nc(CCc5ccc(F)cc5)c4-c4nnc(C)o4)sc23)C1 [Compound 134, 6-(4-fluorophenethyl)-2-isobutyl-4-(7-(3-(methoxymethyl)azetidin-1-yl)thieno[2,3-c]pyridin-2-yl)-5-(5-methyl-1,3,4-oxadiazol-2-yl)nicotinamide] | 1160 nM
8 | Cc1nnc(-c2c(CCc3ccc(F)cc3)nc(CC(C)C)c(C(N)=O)c2-c2cc3cccc(NCc4ccc(F)c(F)c4)c3s2)o1 [Compound 136, 4-(7-((3,4-difluorobenzyl)amino)benzo[b]thiophen-2-yl)-6-(4-fluorophenethyl)-2-isobutyl-5-(5-methyl-1,3,4-oxadiazol-2-yl)nicotinamide] | 6.7 nM
9 | Cc1nnc(-c2c(CCc3ccc(F)cc3)nc(CC(C)C)c(C(N)=O)c2-c2cc3cccc(N[C@@H]4CCc5ccccc54)c3s2)o1 [Compound 137, (R)-4-(7-((2,3-dihydro-1H-inden-1-yl)amino)benzo[b]thiophen-2-yl)-6-(4-fluorophenethyl)-2-isobutyl-5-(5-methyl-1,3,4-oxadiazol-2-yl)nicotinamide] | 1.3 nM
10 | Cc1nnc(-c2c(CCc3ccc(F)cc3)nc(CC(C)C)c(C(N)=O)c2-c2cc3cccc(C#N)c3s2)o1 [Compound 138, 4-(7-cyano-1-benzothiophen-2-yl)-6-[2-(p-fluorophenyl)ethyl]-2-isobutyl-5-(5-methyl-1,3,4-oxadiazol-2-yl)nicotinamide] | 2260 nM
11 | Cc1nnc(-c2c(CCc3ccc(F)cc3)nc(CC(C)C)c(C(N)=O)c2-c2cc3c(N)cccc3s2)o1 [Compound 139, 4-(4-aminobenzo[b]thiophen-2-yl)-6-(4-fluorophenethyl)-2-isobutyl-5-(5-methyl-1,3,4-oxadiazol-2-yl)nicotinamide] | 9930 nM
12 | Cc1nnc(-c2c(CCc3ccc(F)cc3)nc(CC(C)C)c(C(N)=O)c2-c2ccc(CN[C@@H]3CCc4ccccc43)s2)o1 [Compound 140, 4-(5-{[(R)-1-indanylamino]methyl}-2-thienyl)-6-[2-(p-fluorophenyl)ethyl]-2-isobutyl-5-(5-methyl-1,3,4-oxadiazol-2-yl)nicotinamide] | 177 nM
13 | Cc1nnc(-c2c(CCc3ccc(F)cc3)nc(CC(C)C)c(C(N)=O)c2-c2ccc(CNC(=O)c3ccc(F)c(F)c3)s2)o1 [Compound 141] | 50 nM
14 | Cc1nnc(-c2c(CCc3ccc(F)cc3)nc(CC(C)C)c(C(N)=O)c2-c2ccc3c(c2)CCC3NCc2ccc(F)c(F)c2)o1 (stereo not drawn) [Compound 143, 4-(1-{[(3,4-difluorophenyl)methyl]amino}-5-indanyl)-6-[2-(p-fluorophenyl)ethyl]-2-isobutyl-5-(5-methyl-1,3,4-oxadiazol-2-yl)nicotinamide] | 374 nM
15 | Cc1nnc(-c2c(CCc3ccc(F)cc3)nc(CC(C)C)c(C(N)=O)c2CCOC(=O)NCc2ccc(F)c(F)c2)o1 [Compound 145] | 6290 nM
16 | Cc1nnc(-c2c(OCc3ccc(F)cc3)nc(CC(C)C)c(C(N)=O)c2-c2ccc(C(=O)NCc3ccc(F)c(F)c3)s2)o1 [Compound 146, 4-[5-[(3,4-difluorophenyl)methylcarbamoyl]-2-thienyl]-6-[(4-fluorophenyl)methoxy]-2-isobutyl-5-(5-methyl-1,3,4-oxadiazol-2-yl)pyridine-3-carboxamide] | 973 nM
17 | CC(C)Cc1nc(CCc2ccc(F)cc2)c(-c2nnc(C(C)C)o2)c(-c2ccc(C(=O)NCc3ccc(F)c(F)c3)s2)c1C(N)=O [Compound 147, N-(3,4-difluorophenyl)methyl-5-{5-carbamoyl-2-[2-(p-fluorophenyl)ethyl]-6-isobutyl-3-(5-isopropyl-1,3,4-oxadiazol-2-yl)-4-pyridyl}-2-thenamide] | 2.3 nM
18 | CC(C)Cc1nc(CCc2ccc(F)cc2)c(-c2nnc(C(F)(F)F)o2)c(-c2ccc(C(=O)NCc3ccc(F)c(F)c3)s2)c1C(N)=O [Compound 148, N-(3,4-difluorophenyl)methyl-5-{5-carbamoyl-2-[2-(p-fluorophenyl)ethyl]-6-isobutyl-3-[5-(trifluoromethyl)-1,3,4-oxadiazol-2-yl]-4-pyridyl}-2-thenamide] | 208 nM
19 | Cc1nnc(-c2c(CCc3ccc(F)cc3)nc(CC(C)C)c(C(N)=O)c2-c2ccc(C(=O)NCc3ccc(F)c(F)c3)s2)s1 [Compound 149, N-(3,4-difluorophenyl)methyl-5-{5-carbamoyl-2-[2-(p-fluorophenyl)ethyl]-6-isobutyl-3-(5-methyl-1,3,4-thiadiazol-2-yl)-4-pyridyl}-2-thenamide] | 19.1 nM
20 | Cc1cnc(-c2c(CCc3ccc(F)cc3)nc(CC(C)C)c(C(N)=O)c2-c2ccc(C(=O)NCc3ccc(F)c(F)c3)s2)o1 [Compound 150, N-(3,4-difluorophenyl)methyl-5-{5-carbamoyl-2-[2-(p-fluorophenyl)ethyl]-6-isobutyl-3-(5-methyl-1,3-oxazol-2-yl)-4-pyridyl}-2-thenamide] | 3.5 nM
21 | Cc1cc(-c2c(CCc3ccc(F)cc3)nc(CC(C)C)c(C(N)=O)c2-c2ccc(C(=O)NCc3ccc(F)c(F)c3)s2)on1 [Compound 151, N-(3,4-difluorophenyl)methyl-5-{5-carbamoyl-2-[2-(p-fluorophenyl)ethyl]-6-isobutyl-3-(3-methyl-5-isoxazolyl)-4-pyridyl}-2-thenamide] | 134 nM

From US20250042916A1 (ACONCAGUA BIO, INC., priority 2023, published 2025)
